Results taken from patent US11629171B2, “Beta-hairpin peptidomimetics” (POLYPHOR AG, priority 2017, dated 2023).
In brackets after ≈: the same amount, converted by molar mass. Where a SMILES comes first, the peptide text is derived from it. Bridges are numbered along the chain shown (N, C = ends). Roman numbers before positions name the chains, in order. [ ]: non-standard residue; d: D form. dDab = NCC[C@@H](N)C(=O)O; Dab = NCC[C@H](N)C(=O)O; Abu = CC[C@H](N)C(=O)O; Dap = NC[C@H](N)C(=O)O

How the values were obtained:
[1] = tested on: human red blood cells (hRBC); assay: Hemolysis; assay type: cell-based; conditions: red cells of human, 1 h, 200
Method in brief: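 Read-out is supernatant absorbance at 540 nm, normalised to full lysis by 2% Triton X-100 and zero lysis by PBS with 10% water. Peptides (200 μg/mL) were exposed to 20% v/v washed human erythrocytes at 37° C for 1 h under shaking.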

[2] = tested on: Acinetobacter baumannii 872842; assay type: cell-based; conditions: 872842
Method in brief: (§1)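 CLSI broth microdilution in cation-adjusted Mueller-Hinton II broth with 0.002% polysorbate 80 (final), inoculum appr. 10^6 CFU/mL, peptides in serial two-fold dilutions. MIC (μg/mL) is the lowest concentration without visible growth after 18-20 h at 35° C.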

[3] = tested on: Escherichia coli ATCC 25922; assay type: cell-based; conditions: ATCC 25922
Method in brief: as §1

[4] = tested on: Pseudomonas aeruginosa ATCC 27853; assay type: cell-based; conditions: ATCC 27853
Method in brief: as §1

[5] = tested on: Klebsiella pneumoniae SSI #3010; assay type: cell-based; conditions: SSI #3010
Method in brief: as §1

[6] = tested on: Escherichia coli 926415; assay type: cell-based; conditions: 926415
Method in brief: as §1

[7] = tested on: Klebsiella pneumoniae 968733; assay type: cell-based; conditions: 968733
Method in brief: as §1

[8] = tested on: Enterobacter cloacae 848840; assay type: cell-based; conditions: 848840
Method in brief: as §1

[9] = tested on: Acinetobacter baumannii DSM 30008; assay type: cell-based; conditions: DSM 30008
Method in brief: as §1

[10] = tested on: male ICR mice; assay: Tolerability in a mouse model (Maximum Tolerated Dose assay); assay type: in vivo; conditions: 2 × 40 mg/kg s.c. at a 12-hr interval, groups of 3
Method in brief: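 Peptides in 0.9% NaCl (pH 6.5-7.6) given s.c. at 30 or 40 mg/kg, twice 12 h apart, to groups of 3 male ICR mice (23±3 g). Acute toxic signs (mortality, convulsions, tremors, sedation) and autonomic effects (diarrhea, salivation, piloerection) observed for 30 min after each dose.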

Row | Compound | Hemolysis at 200 μg/mL [1] | MIC [2] | Escherichia coli ATCC 25922 MIC [3] | Pseudomonas aeruginosa ATCC 27853 MIC [4] | Klebsiella pneumoniae SSI #3010 MIC [5] | MIC [6] | MIC [7] | MIC [8] | Acinetobacter baumannii DSM 30008 MIC [9] | Mortality and dose [10]
1 | CC[C@@H]1NC(=O)[C@@H](CC(C)C)NC(=O)[C@H](CCN)NC(=O)[C@@H](NC(=O)[C@H](CCN)NC(=O)[C@@H](NC(=O)[C@H](CCN)NC(=O)CC[C@@H]2NC(=O)[C@H](CCN)NC(=O)[C@H](Cc3ccc(O)cc3)NC(=O)[C@@H](NC(=O)[C@@H](NC(C)=O)C(C)C)CSSC[C@@H](C(=O)N[C@@H](CO)C(N)=O)NC(=O)[C@H](C(C)C)NC(=O)[C@H](CO)NC(=O)[C@H](Cc3c[nH]c4ccccc34)NC(=O)[C@H](CO)NC(=O)[C@@H](CCN)NC2=O)[C@@H](C)O)CCNC(=O)[C@H]([C@@H](C)O)NC(=O)[C@H](CCN)NC(=O)[C@H](CCN)NC1=O [Ex. 332] (I: Ac-VCY[Dab]E[dDab]SWSVCS-NH2 / II: [Dab]T[Dab][Dab][Dab][dL][Abu][Dab][Dab]T; disulfide I:2-I:11; amide I:5-II:N; lactam II:4-II:C) | 2% | 0.25 µg/mL (≈ 0.105 µM) | 0.03125 µg/mL | 0.25 µg/mL | 0.0625 µg/mL | 0.25 µg/mL (≈ 0.105 µM) | 0.5 µg/mL (≈ 0.21 µM) | 0.125 µg/mL (≈ 0.0524 µM) | 0.0625 µg/mL | 0/3 died at 2 × 40 mg/kg
2 | CC(=O)N[C@H](C(=O)N[C@H]1CSSC[C@@H](C(=O)N[C@@H](CO)C(N)=O)NC(=O)[C@H](C(C)C)NC(=O)[C@H](CO)NC(=O)[C@H](Cc2c[nH]c3ccccc23)NC(=O)[C@H](CO)NC(=O)[C@@H](CCN)NC(=O)[C@H](CCC(=O)N[C@@H](CCN)C(=O)N[C@H](C(=O)N[C@@H](CCN)C(=O)N[C@H]2CCNC(=O)[C@H]([C@@H](C)O)NC(=O)[C@H](CCN)NC(=O)[C@H](CCN)NC(=O)[C@H]([C@@H](C)O)NC(=O)[C@@H](CC(C)C)NC(=O)[C@H](CCN)NC2=O)[C@@H](C)O)NC(=O)[C@H](CCN)NC(=O)[C@H](Cc2ccc(O)cc2)NC1=O)C(C)C [Ex. 333] (I: Ac-VCY[Dab]E[dDab]SWSVCS-NH2 / II: [Dab]T[Dab][Dab][Dab][dL]T[Dab][Dab]T; disulfide I:2-I:11; amide I:5-II:N; lactam II:4-II:C) | 2% | 0.5 µg/mL (≈ 0.208 µM) | 0.0625 µg/mL | 0.25 µg/mL | 0.0625 µg/mL | 0.5 µg/mL (≈ 0.208 µM) | 1 µg/mL (≈ 0.417 µM) | 0.25 µg/mL (≈ 0.104 µM) | 0.125 µg/mL | 0/3 died at 2 × 40 mg/kg
3 | CC(=O)N[C@H](C(=O)N[C@H]1CSSC[C@@H](C(=O)N[C@@H](CO)C(N)=O)NC(=O)[C@H](C(C)C)NC(=O)[C@H](CO)NC(=O)[C@H](Cc2c[nH]c3ccccc23)NC(=O)[C@H](CO)NC(=O)[C@@H](CCN)NC(=O)[C@H](CCC(=O)N[C@@H](CCN)C(=O)N[C@H](C(=O)N[C@@H](CCN)C(=O)N[C@H]2CCNC(=O)[C@H]([C@@H](C)O)NC(=O)[C@H](CCN)NC(=O)[C@H](CCN)NC(=O)[C@H](CC(C)C)NC(=O)[C@@H](CC(C)C)NC(=O)[C@H](CCN)NC2=O)[C@@H](C)O)NC(=O)[C@H](CCN)NC(=O)[C@H](Cc2ccc(O)cc2)NC1=O)C(C)C [Ex. 334] (I: Ac-VCY[Dab]E[dDab]SWSVCS-NH2 / II: [Dab]T[Dab][Dab][Dab][dL]L[Dab][Dab]T; disulfide I:2-I:11; amide I:5-II:N; lactam II:4-II:C) | <1% | 0.125 µg/mL (≈ 0.0518 µM) | 0.03125 µg/mL | 0.125 µg/mL | 0.0625 µg/mL | 0.25 µg/mL (≈ 0.104 µM) | 0.25 µg/mL (≈ 0.104 µM) | 0.125 µg/mL (≈ 0.0518 µM) | 0.03125 µg/mL | 0/3 died at 2 × 40 mg/kg
4 | CC(=O)N[C@H](C(=O)N[C@H]1CSSC[C@@H](C(=O)N[C@@H](CO)C(N)=O)NC(=O)[C@H](C(C)C)NC(=O)CNC(=O)[C@H](Cc2c[nH]c3ccccc23)NC(=O)[C@H](CO)NC(=O)[C@@H](CCN)NC(=O)[C@H](CCC(=O)N[C@@H](CCN)C(=O)N[C@H](C(=O)N[C@@H](CN)C(=O)N[C@H]2CCNC(=O)[C@H]([C@@H](C)O)NC(=O)[C@H](CCN)NC(=O)[C@H](CCN)NC(=O)[C@H](CC(C)C)NC(=O)[C@@H](CC(C)C)NC(=O)[C@H](CCN)NC2=O)[C@@H](C)O)NC(=O)[C@H](CCN)NC(=O)[C@H](Cc2ccc(O)cc2)NC1=O)C(C)C [Ex. 335] (I: Ac-VCY[Dab]E[dDab]SWGVCS-NH2 / II: [Dab]T[Dap][Dab][Dab][dL]L[Dab][Dab]T; disulfide I:2-I:11; amide I:5-II:N; lactam II:4-II:C) | <1% | 0.25 µg/mL (≈ 0.106 µM) | 0.0625 µg/mL | 0.125 µg/mL | 0.0625 µg/mL | 0.25 µg/mL (≈ 0.106 µM) | 0.5 µg/mL (≈ 0.211 µM) | 0.25 µg/mL (≈ 0.106 µM) | 0.0625 µg/mL | 0/3 died at 2 × 40 mg/kg
5 | CC(=O)N[C@H](C(=O)N[C@H]1CSSC[C@@H](C(=O)N[C@@H](CO)C(N)=O)NC(=O)[C@H](C(C)C)NC(=O)[C@H](CO)NC(=O)[C@H](Cc2c[nH]c3ccccc23)NC(=O)[C@H](CO)NC(=O)CNC(=O)[C@H](CCC(=O)N[C@@H](CCN)C(=O)N[C@H](C(=O)N[C@@H](CN)C(=O)N[C@H]2CCNC(=O)[C@H]([C@@H](C)O)NC(=O)[C@H](CCN)NC(=O)[C@H](CCN)NC(=O)[C@H](CC(C)C)NC(=O)[C@@H](CC(C)C)NC(=O)[C@H](CCN)NC2=O)[C@@H](C)O)NC(=O)[C@H](CCN)NC(=O)[C@H](Cc2ccc(O)cc2)NC1=O)C(C)C [Ex. 337] (I: Ac-VCY[Dab]EGSWSVCS-NH2 / II: [Dab]T[Dap][Dab][Dab][dL]L[Dab][Dab]T; disulfide I:2-I:11; amide I:5-II:N; lactam II:4-II:C) | 2% | 0.25 µg/mL (≈ 0.106 µM) | 0.0625 µg/mL | 0.25 µg/mL | 0.125 µg/mL | 1 µg/mL (≈ 0.424 µM) | 2 µg/mL (≈ 0.849 µM) | 0.25 µg/mL (≈ 0.106 µM) | 0.125 µg/mL | 0/3 died at 2 × 40 mg/kg
6 | CC[C@@H]1NC(=O)[C@@H](CC(C)C)NC(=O)[C@H](CCN)NC(=O)[C@@H](NC(=O)[C@H](CN)NC(=O)[C@@H](NC(=O)[C@H](CCN)NC(=O)CC[C@@H]2NC(=O)[C@H](CCN)NC(=O)[C@H](Cc3ccc(O)cc3)NC(=O)[C@@H](NC(=O)[C@@H](NC(C)=O)C(C)C)CSSC[C@@H](C(=O)N[C@@H](CO)C(N)=O)NC(=O)[C@H]([C@@H](C)CC)NC(=O)[C@H](CO)NC(=O)[C@H](Cc3c[nH]c4ccccc34)NC(=O)[C@H](CO)NC(=O)[C@@H](CCN)NC2=O)[C@@H](C)O)CCNC(=O)[C@H]([C@@H](C)O)NC(=O)[C@H](CCN)NC(=O)[C@H](CCN)NC1=O [Ex. 338] (I: Ac-VCY[Dab]E[dDab]SWSICS-NH2 / II: [Dab]T[Dap][Dab][Dab][dL][Abu][Dab][Dab]T; disulfide I:2-I:11; amide I:5-II:N; lactam II:4-II:C) | <1% | 0.0625 µg/mL (≈ 0.0262 µM) | 0.03125 µg/mL | 0.125 µg/mL | 0.03125 µg/mL | 0.0625 µg/mL (≈ 0.0262 µM) | 0.125 µg/mL (≈ 0.0524 µM) | 0.0625 µg/mL (≈ 0.0262 µM) | 0.03125 µg/mL | 0/3 died at 2 × 40 mg/kg
7 | CC[C@@H]1NC(=O)[C@H](CO)NC(=O)[C@H](Cc2c[nH]c3ccccc23)NC(=O)[C@H](CO)NC(=O)[C@@H](CCN)NC(=O)[C@H](CCC(=O)N[C@@H](CCN)C(=O)N[C@H](C(=O)N[C@@H](CN)C(=O)N[C@H]2CCNC(=O)[C@H]([C@@H](C)O)NC(=O)[C@H](CCN)NC(=O)[C@H](CCN)NC(=O)[C@H](CC)NC(=O)[C@@H](CC(C)C)NC(=O)[C@H](CCN)NC2=O)[C@@H](C)O)NC(=O)[C@H](CCN)NC(=O)[C@H](Cc2ccc(O)cc2)NC(=O)[C@@H](NC(=O)[C@@H](NC(C)=O)C(C)C)CSSC[C@@H](C(=O)N[C@@H](CO)C(N)=O)NC1=O [Ex. 339] (I: Ac-VCY[Dab]E[dDab]SWS[Abu]CS-NH2 / II: [Dab]T[Dap][Dab][Dab][dL][Abu][Dab][Dab]T; disulfide I:2-I:11; amide I:5-II:N; lactam II:4-II:C) | <1% | 0.125 µg/mL (≈ 0.053 µM) | 0.0625 µg/mL | 0.125 µg/mL | 0.0625 µg/mL | 0.5 µg/mL (≈ 0.212 µM) | 0.5 µg/mL (≈ 0.212 µM) | 0.125 µg/mL (≈ 0.053 µM) | 0.0625 µg/mL | 0/3 died at 2 × 40 mg/kg
